Assay results from patent US9359311B2, “Substituted aromatic oligomers” (NEUROSCIOS GMBH, priority 2011, dated 2016).

Target: T1, biotinylated Aβ1-42 (Homo sapiens, UniProt P05067)
T1 construct: To assure monomerisation of biotinylated Aβ1-42 (Anaspec #23523-0.5) the peptide was thoroughly monomerised; purchased Anaspec 23523-0.5
Test: Inhibition of Abeta oligomerisation (biotinylated Aβ1-42, neutravidin plate, streptavidin-HRP)
Type: biochemical
Conditions: inhibition of Aβ1-42 aggregation, approximately 12 nM Aβ1-42, PBS pH 7.4, 2% DMSO, 30 min RT

T1 sequence (P05067 672-713 limits assumed): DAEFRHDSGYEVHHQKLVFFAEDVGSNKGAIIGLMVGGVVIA

| Structure (SMILES) | IC50 [µM] |
| --- | --- |
| O=C(O)CCc1cc(-c2ccc(C(=O)O)s2)sc1-c1ccc(-c2sc(-c3ccc(C(=O)O)s3)cc2CCC(=O)O)s1 [Example 53, 5-[4-(2-Carboxethyl)-5-{5-[3-(2-carboxyethyl)-5-(5-carboxythiophen-2-yl)thiophen-2-yl]thiophen-2-yl}thiophen-2-yl]thiophene-2-carboxylic acid] | 3.98 |
| O=C(O)/C=C/c1ccc(-c2cc(CC(=O)O)c(-c3ccc(-c4sc(-c5ccc(/C=C/C(=O)O)s5)cc4CC(=O)O)s3)s2)s1 [Example 64] | 2.51 |
| O=C(O)Cc1ccsc1-c1ccc(-c2sc(-c3cccc(-c4cc(CC(=O)O)c(-c5ccc(-c6sccc6CC(=O)O)s5)s4)c3)cc2CC(=O)O)s1 [Example 34, 2-(2-{5-[3-(Carboxymethyl)-5-{3-[4-(carboxymethyl)-5-{5-[3-(carboxymethyl)thiophen-2-yl]thiophen-2-yl}thiophen-2-yl]phenyl}thiophen-2-yl]thiophen-2-yl}thiophen-3-yl)acetic acid] | 0.794 |
| O=C(O)Cc1cc(-c2ccc(-c3ccc(C(=O)O)cc3)s2)sc1-c1ccc(-c2sc(-c3ccc(-c4ccc(C(=O)O)cc4)s3)cc2CC(=O)O)s1 [Example 19, 4-{5-[4-(Carboxymethyl)-5-{5-[3-(carboxymethyl)-5-[5-(4-carboxyphenyl)thiophen-2-yl]thiothiophen-2-yl]thiophen-2-yl}thiophen-2-yl]thiophen-2-yl}benzoic acid] | 3.98 |

Second part, the molecule after the results:

| IC50 [µM] | Structure (SMILES) |
| --- | --- |
| 5.01 | Cn1nc(C(F)(F)F)cc1-c1cc(CC(=O)O)c(-c2ccc(-c3sc(-c4cc(C(F)(F)F)nn4C)cc3CC(=O)O)s2)s1 [Example 77, 2-(2-{5-[3-(Carboxymethyl)-5-[1-methyl-3-(trifluoromethyl)-1H-pyrazol-5-yl]thiophen-2-yl]thiophen-2-yl}-5-[1-methyl-3-(trifluoromethyl)-1H-pyrazol-5-yl]thiophen-3-yl)acetic acid] |
| 1 | O=C(O)Cc1cc(-c2cccc(OC(F)(F)F)c2)sc1-c1ccc(-c2sc(-c3cccc(OC(F)(F)F)c3)cc2CC(=O)O)s1 [Example 87, 2-(2-{5-[3-(Carboxymethyl)-5-[3-(trifluoromethoxy)phenyl]thiophen-2-yl]thiophen-2-yl}-5-[3-(trifluoromethoxy)phenyl]thiophen-3-yl)acetic acid] |
| 7.94 | O=C(O)Cc1cc(-c2cccnc2)sc1-c1ccc(-c2sc(-c3ccc(C(=O)O)s3)cc2CC(=O)O)s1 [Example 13, 5-[4-(Carboxymethyl)-5-{5-[3-(carboxymethyl)-5-(pyridin-3-yl)thiophen-2-yl]thiophen-2-yl}thiophen-2-yl]thiophene-2-carboxylic acid] |
| 12.6 | O=C(O)Cc1cc(-c2ccccc2C(=O)O)sc1-c1ccc(-c2sc(-c3ccccc3C(=O)O)cc2CC(=O)O)s1 [Example 11, 2-[4-(Carboxymethyl)-5-{5-[3-(carboxymethyl)-5-(2-carboxyphenyl)thiophen-2-yl]thiophen-2-yl}thiophen-2-yl]benzoic acid] |
| 3.98 | N#Cc1ccc(-c2cc(CC(=O)O)c(-c3ccc(-c4sc(-c5ccc(C#N)s5)cc4CC(=O)O)s3)s2)s1 [Example 85, 2-(2-{5-[3-(Carboxymethyl)-5-(5-cyanothiophen-2-yl)thiophen-2-yl]thiophen-2-yl}-5-(5-cyanothiophen-2-yl)thiophen-3-yl)acetic acid] |
| 7.94 | O=C(O)Cc1cc(-c2cccc(C(=O)NC3CC3)c2)sc1-c1ccc(-c2sc(-c3cccc(C(=O)NC4CC4)c3)cc2CC(=O)O)s1 [Example 80, 2-(2-{5-[3-(Carboxymethyl)-5-[3-(cyclopropylcarbamoyl)phenyl]thiophen-2-yl]thiophen-2-yl}-5-[3-(cyclopropylcarbamoyl)phenyl]thiophen-3-yl)acetic acid] |
